According to patent US20190388425A1, “SUBSTITUTED IMIDAZOPYRIDINPYRIMIDINES” (Bayer Pharma Aktiengesellschaft, priority 2017, published 2019):

Biological target: T1, human full-length MKNK1 (Homo sapiens, UniProt Q9BUB5, T385D)
T1 construct: GST (N); purchased Carna Biosciences 02-145; host or cells: insect cells (baculovirus expression system)
Test: MKNK1 kinase high ATP assay (TR-FRET)
Format: biochemical
Details: TR-FRET, 2 mM ATP (high ATP), 15 min preincubation with enzyme, 30 min reaction at 22° C.; read-out: MKNK1 IC50
Method: MKNK1 Kinase High ATP Assay
MKNK1-inhibitory activity at high ATP of compounds of the present invention after their preincubation with MKNK1 was quantified employing the TR-FRET-based MKNK1 high ATP assay as described in the following paragraphs.
As substrate for the kinase reaction the biotinylated peptide biotin-Ahx-[…] (C-terminus in amide form) was used, which can be purchased e.g. from the company Biosyntan (Berlin-Buch, Germany).
For the assay 50 nL of a 100 fold concentrated solution of the test compound in DMSO was pipetted into a black low volume 384 well microtiter plate (Greiner Bio-One, Frickenhausen, Germany), 2 μL of a solution of MKNK1 in aqueous assay buffer [50 mM HEPES pH 7.5, 5 mM MgCl2, 1.0 mM dithiothreitol, 0.005% (v/v) Nonidet-P40 (Sigma)] was added and the mixture was incubated for 15 min at 22° C. to allow pre-binding of the test compounds to the enzyme before the start of the kinase reaction. Then the kinase reaction was started by the addition of 3 μL of a solution of adenosine-tri-phosphate (ATP, 3.3 mM=>final conc. in the 5 μL assay volume is 2 mM) and substrate (0.1 μM=>final conc. in the 5 μL assay volume is 0.06 μM) in assay buffer and the resulting mixture was incubated for a reaction time of 30 min at 22° C. The concentration of MKNK1 was adjusted depending of the activity of the enzyme lot and was chosen appropriate to have the assay in the linear range, typical concentrations were in the range of 0.003 μg/mL. The reaction was stopped by the addition of 5 μL of a solution of TR-FRET detection reagents (5 nM streptavidine-XL665 [Cisbio Bioassays, Codolet, France] and 1 nM anti-ribosomal protein S6 (pSer236)-antibody from Invitrogen [#44921G] and 1 nM LANCE EU-W1024 labeled ProteinG [Perkin-Elmer, product no. AD0071]) in an aqueous EDTA-solution (100 mM EDTA, 0.1% (w/v) bovine serum albumin in 50 mM HEPES pH 7.5).
The resulting mixture was incubated for 1 h at 22° C. to allow the formation of complex between the phosphorylated biotinylated peptide and the detection reagents. Subsequently the amount of phosphorylated substrate was evaluated by measurement of the resonance energy transfer from the Eu-chelate to the streptavidine-XL. Therefore, the fluorescence emissions at 620 nm and 665 nm after excitation at 350 nm were measured in a TR-FRET reader, e.g. a Rubystar (BMG Labtechnologies, Offenburg, Germany) or a Viewlux (Perkin-Elmer). The ratio of the emissions at 665 nm and at 622 nm was taken as the measure for the amount of phosphorylated substrate.

T1 sequence (Q9BUB5 1-424 isoform Q9BUB5-2 T344D): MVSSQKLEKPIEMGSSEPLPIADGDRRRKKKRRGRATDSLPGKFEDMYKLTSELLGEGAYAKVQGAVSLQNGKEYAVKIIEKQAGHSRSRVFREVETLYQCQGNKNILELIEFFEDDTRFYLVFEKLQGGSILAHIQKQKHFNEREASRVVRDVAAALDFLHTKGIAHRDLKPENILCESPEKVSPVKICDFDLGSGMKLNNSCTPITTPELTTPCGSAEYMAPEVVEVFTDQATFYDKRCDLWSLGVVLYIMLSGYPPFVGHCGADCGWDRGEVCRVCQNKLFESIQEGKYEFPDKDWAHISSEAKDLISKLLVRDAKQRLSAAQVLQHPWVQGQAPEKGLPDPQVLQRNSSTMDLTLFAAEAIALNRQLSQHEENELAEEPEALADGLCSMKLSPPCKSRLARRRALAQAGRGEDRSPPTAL

Row | Structure (SMILES) | IC50
1 | Cc1cc(Nc2ncnc3sc4c(c23)CC[C@H](C(=O)N2CC(C#N)C2)C4)c(=O)n2c1C(=O)NC21CCCC1 [Example 39, 1-({(7S)-4-[(8′-Methyl-1′,5′-dioxo-1′,5′-dihydro-2′H-spiro[cyclopentane-1,3′-imidazo[1,5-a]pyridin]-6′-yl)amino]-5,6,7,8-tetrahydro[1]benzothieno[2,3-d]pyrimidin-7-yl}carbonyl)azetidine-3-carbonitrile] | 3300 pM
2 | Cc1cc(Nc2ncnc3sc4c(c23)CC[C@H](C(=O)N2CC(N(C)C)C2)C4)c(=O)n2c1C(=O)NC21CCCC1 [Example 40, 6′-{[(7S)-7-{[3-(Dimethylamino)azetidin-1-yl]carbonyl}-5,6,7,8-tetrahydro[1]benzothieno[2,3-d]pyrimidin-4-yl]amino}-8′-methyl-2′H-spiro[cyclopentane-1,3′-imidazo[1,5-a]pyridine]-1′,5′-dione] | 300 pM
3 | Cc1cc(Nc2ncnc3sc4c(c23)CC[C@H](C(=O)N2CC[C@H](N(C)C)C2)C4)c(=O)n2c1C(=O)NC21CCCC1 [Example 41, 6′-{[(7S)-7-{[(3S)-3-(Dimethylamino)pyrrolidin-1-yl]carbonyl}-5,6,7,8-tetrahydro[1]benzothieno[2,3-d]pyrimidin-4-yl]amino}-8′-methyl-2′H-spiro[cyclopentane-1,3′-imidazo[1,5-a]pyridine]-1′,5′-dione] | 1200 pM
4 | Cc1cc(Nc2ncnc3sc4c(c23)CC[C@H](C(=O)O)C4)c(=O)n2c1C(=O)NC21CCC(F)(F)CC1 [Example 42, (7S)-4-[(4,4-Difluoro-8′-methyl-1′,5′-dioxo-1′,5′-dihydro-2′H-spiro[cyclohexane-1,3′-imidazo[1,5-a]pyridin]-6′-yl)amino]-5,6,7,8-tetrahydro[1]benzothieno[2,3-d]pyrimidine-7-carboxylic acid] | 24500 pM
5 | Cc1cc(Nc2ncnc3sc4c(c23)CCCC4)c(=O)n2c1C(=O)NC21CCCCC1 [Example 43, 8′-Methyl-6′-(5,6,7,8-tetrahydro[1]benzothieno[2,3-d]pyrimidin-4-ylamino)-2′H-spiro[cyclohexane-1,3′-imidazo[1,5-a]pyridine]-1′,5′-dione] | 9900 pM
6 | Cc1cc(Nc2ncnc3sc4c(c23)CC[C@H](C(=O)O)C4)c(=O)n2c1C(=O)NC21CSC1 [Example 44, (7S)-4-[(8-Methyl-1,5-dioxo-1,5-dihydro-2H-spiro[imidazo[1,5-a]pyridine-3,3′-thietan]-6-yl)amino]-5,6,7,8-tetrahydro[1]benzothieno[2,3-d]pyrimidine-7-carboxylic acid] | 17400 pM
7 | Cc1cc(Nc2ncnc3sc4c(c23)CC[C@H](C(=O)N(C)C)C4)c(=O)n2c1C(=O)NC21CSC1 [Example 45, (7S)—N,N-Dimethyl-4-[(8-methyl-1,5-dioxo-1,5-dihydro-2H-spiro[imidazo[1,5-a]pyridine-3,3′-thietan]-6-yl)amino]-5,6,7,8-tetrahydro[1]benzothieno[2,3-d]pyrimidine-7-carboxamide] | 600 pM
8 | Cc1cc(Nc2ncnc3sc4c(c23)CC[C@H](C(=O)N2CCC2)C4)c(=O)n2c1C(=O)NC21CSC1 [Example 46, 6-{[(7S)-7-(Azetidin-1-ylcarbonyl)-5,6,7,8-tetrahydro[1]benzothieno[2,3-d]pyrimidin-4-yl]amino}-8-methyl-2H-spiro[imidazo[1,5-a]pyridine-3,3′-thietane]-1,5-dione] | 600 pM
9 | Cc1cc(Nc2ncnc3sc4c(c23)CC[C@H](C(=O)N2CC(C#N)C2)C4)c(=O)n2c1C(=O)NC21CSC1 [Example 47, 1-({(7S)-4-[(8-Methyl-1,5-dioxo-1,5-dihydro-2H-spiro[imidazo[1,5-a]pyridine-3,3′-thietan]-6-yl)amino]-5,6,7,8-tetrahydro[1]benzothieno[2,3-d]pyrimidin-7-yl}carbonyl)azetidine-3-carbonitrile] | 800 pM
10 | Cc1cc(Nc2ncnc3sc4c(c23)CC[C@H](C(=O)N2CC(N(C)C)C2)C4)c(=O)n2c1C(=O)NC21CSC1 [Example 48, 6-{[(7S)-7-{[3-(Dimethylamino)azetidin-1-yl]carbonyl}-5,6,7,8-tetrahydro[1]benzothieno[2,3-d]pyrimidin-4-yl]amino}-8-methyl-2H-spiro[imidazo[1,5-a]pyridine-3,3′-thietane]-1,5-dione] | 400 pM
11 | Cc1cc(Nc2ncnc3sc4c(c23)CC[C@H](C(=O)N2CC[C@H](N(C)C)C2)C4)c(=O)n2c1C(=O)NC21CSC1 [Example 49, 6-{[(7S)-7-{[(3S)-3-(Dimethylamino)pyrrolidin-1-yl]carbonyl}-5,6,7,8-tetrahydro[1]benzothieno[2,3-d]pyrimidin-4-yl]amino}-8-methyl-2H-spiro[imidazo[1,5-a]pyridine-3,3′-thietane]-1,5-dione] | 500 pM
12 | Cc1cc(Nc2ncnc3sc4c(c23)CC[C@H](C(=O)N2CCN(C)[C@H](C)C2)C4)c(=O)n2c1C(=O)NC21CSC1 [Example 50, 6-{[(7S)-7-{[(3R)-3,4-dimethylpiperazin-1-yl]carbonyl}-5,6,7,8-tetrahydro[1]benzothieno[2,3-d]pyrimidin-4-yl]amino}-8-methyl-2H-spiro[imidazo[1,5-a]pyridine-3,3′-thietane]-1,5-dione] | 300 pM
13 | Cc1cc(Nc2ncnc3sc4c(c23)CC[C@H](C(=O)N2C[C@H]3C[C@@H]2CO3)C4)c(=O)n2c1C(=O)NC21CSC1 [Example 51, 8-Methyl-6-({(7S)-7-[(1R,4R)-2-oxa-5-azabicyclo[2.2.1]hept-5-ylcarbonyl]-5,6,7,8-tetrahydro[1]benzothieno[2,3-d]pyrimidin-4-yl}amino)-2H-spiro[imidazo[1,5-a]pyridine-3,3′-thietane]-1,5-dione] | 400 pM
14 | Cc1cc(Nc2ncnc3sc4c(c23)CC[C@H](C(=O)N(C)C)C4)c(=O)n2c1C(=O)NC21CCC(F)(F)CC1 [Example 52, (7S)-4-[(4,4-Difluoro-8′-methyl-1′,5′-dioxo-1′,5′-dihydro-2′H-spiro[cyclohexane-1,3′-imidazo[1,5-a]pyridin]-6′-yl)amino]-N,N-dimethyl-5,6,7,8-tetrahydro[1]benzothieno[2,3-d]pyrimidine-7-carboxamide] | 600 pM
15 | Cc1cc(Nc2ncnc3sc4c(c23)CC[C@H](C(=O)N2CCC2)C4)c(=O)n2c1C(=O)NC21CCC(F)(F)CC1 [Example 53, 6′-{[(7S)-7-(Azetidin-1-ylcarbonyl)-5,6,7,8-tetrahydro[1]benzothieno[2,3-d]pyrimidin-4-yl]amino}-4,4-difluoro-8′-methyl-2′H-spiro[cyclohexane-1,3′-imidazo[1,5-a]pyridine]-1′,5′-dione] | 13500 pM
16 | Cc1cc(Nc2ncnc3sc4c(c23)CC[C@H](C(=O)N2CC(C#N)C2)C4)c(=O)n2c1C(=O)NC21CCC(F)(F)CC1 [Example 54, 1-({(7S)-4-[(4,4-Difluoro-8′-methyl-1′,5′-dioxo-1′,5′-dihydro-2′H-spiro[cyclohexane-1,3′-imidazo[1,5-a]pyridin]-6′-yl)amino]-5,6,7,8-tetrahydro[1]benzothieno[2,3-d]pyrimidin-7-yl}carbonyl)azetidine-3-carbonitrile] | 4400 pM
17 | Cc1cc(Nc2ncnc3sc4c(c23)CC[C@H](C(=O)N2CC(N(C)C)C2)C4)c(=O)n2c1C(=O)NC21CCC(F)(F)CC1 [Example 55, 6′-{[(7S)-7-{[3-(Dimethylamino)azetidin-1-yl]carbonyl}-5,6,7,8-tetrahydro[1]benzothieno[2,3-d]pyrimidin-4-yl]amino}-4,4-difluoro-8′-methyl-2′H-spiro[cyclohexane-1,3′-imidazo[1,5-a]pyridine]-1′,5′-dione] | 600 pM
18 | Cc1cc(Nc2ncnc3sc4c(c23)CC[C@H](C(=O)N2CC[C@H](N(C)C)C2)C4)c(=O)n2c1C(=O)NC21CCC(F)(F)CC1 [Example 56, 6′-{[(7S)-7-{[(3S)-3-(Dimethylamino)pyrrolidin-1-yl]carbonyl}-5,6,7,8-tetrahydro[1]benzothieno[2,3-d]pyrimidin-4-yl]amino}-4,4-difluoro-8′-methyl-2′H-spiro[cyclohexane-1,3′-imidazo[1,5-a]pyridine]-1′,5′-dione] | 2000 pM
